Data as given in US20200163984A1, “USE OF ISOVALERYL SPIRAMYCIN I, II AND/OR III IN MANUFACTURING MEDICAMENT FOR TREATING AND/OR PREVENTING TUMOR, AND MEDICAMENT” (SHENYANG FUYANG PHARMACEUTICAL TECHNOLOGY CO., LTD., priority 2017, published 2020).
Converted amounts (≈) assume the structure as drawn.

How the values were obtained:
[1] = system: transplanted tumor of HL60 cells; assay: HL-60 transplanted tumor in nude mice; conditions: for Tumor Volume (mm3) (d30): d 30
Procedure: HL-60 cells in a logarithmic growth phase were taken and subjected to a trypan blue exclusion experiment showing that the cell viability was more than 95%, then the cells were subjected to trypsinization, centrifugation, and supernatant removal. Then cell concentration was adjusted to 1×10^7/ml with matrigel, then each nude mouse was inoculated subcutaneously with 0.2 ml of cells at its right armpit and recorded as the first day of inoculation. When the tumor grows to be greater than or equal to 100 mm^3, the mice were randomly divided into 11 groups with 6 mice in each group: isovaleryl spiramycin I groups with doses of 25, 50 and 100 mg/kg, isovaleryl spiramycin II groups with doses of 25, 50 and 100 mg/kg, and isovaleryl spiramycin III groups with doses of 25, 50 and 100 mg/kg. Each group was continuously administered intragastrically for 30 days with a dose of 20 ml/kg. The mice were sacrificed the next day after drug withdrawal and the indicators were tested. The long diameter and short diameter of the tumor, and the weight of each mouse were recorded every 3 days from drug administration to nude mouse sacrifice.
The body weight of the nude mice and the long diameter (a) and short diameter (b) of the transplanted tumor were measured every 3 days, and the tumor volume (v), relative tumor volume (RTV) and relative tumor proliferation rate (T/C) are calculated respectively according to the following formulas, wherein V=a×b^2/2; RTV=V/V0 (V0 is the tumor volume before administration, V is the tumor volume before sacrifice), and T/C (%)=treatment group RTV/model control group RTV×100%.
Each mouse was weighed and sacrificed. After the tumor was completely stripped off from the body of the mouse, the non-tumor tissues such as blood stains and fat were removed to weigh the tumor and calculate the tumor growth inhibition rate. The average tumor weight of each group of mice is used as an indicator of efficacy. Tumor growth inhibition rate (%)=(1−the average tumor weight of the treatment group/the average tumor weight of the model group)×100%.

[2] = system: human renal cell adenocarcinoma cell 769-P; conditions: MTT, 48 hours
[3] = system: transplanted tumor of mouse Lewis lung cancer; assay: Transplanted tumor of mouse Lewis lung cancer; conditions: for Tumor Volume (mm3) (d 1) / Tumor Volume (mm3) (d30) / Relative Tumor Proliferation Rate (T/C) / Relative Tumor Volume (RTV): title prints KM mouse H22 cells; for Tumor Volume (mm3) (d30): d 30; for Body Weight (g) (d1) / Body Weight (g) (d 15): mouse, in vivo
Procedure: Lewis lung cancer cells were cultured in a RPMI 1640 culture medium containing 10% fetal bovine serum at 37° C. in a 5% CO2 incubator. The cells in the logarithmic growth phase were subjected to trypsinization with 0.25% trypsin, then the cells were collected to be centrifugated to remove the obtained supernatant, then were washed twice with sterile normal saline. […] The Lewis cells were adjusted to 1×10^7/mL in concentration and stored in ice water. 75% ethanol was used to disinfect the skin under the right armpits of the mice, and each C57BL/6 mouse was soon inoculated subcutaneously with 0.2 ml of the cells at its right armpit.
In the Lewis lung cancer model, the mice inoculated with the tumor were randomly divided into groups with 10 mice in each group the next day of inoculation. The groups included: a model control group, a positive drug cyclophosphamide control group (CTX, 30 mg/kg), isovaleryl spiramycin I groups with doses of 13, 26 and 52 mg/kg; isovaleryl spiramycin II groups with doses of 13, 26 and 52 mg/kg; isovaleryl spiramycin III groups with doses of 13, 26 and 52 mg/kg. Each group was continuously administered intragastrically for 15 days with a dose of 20 ml/kg.
The tumor-bearing mice were weighed and sacrificed the next day after the last administration. The subcutaneous tumors were dissected and weighed. The average tumor weight of each group is calculated, and the tumor inhibition rate is calculated.
Tumor inhibition rate=(1−T/C)×100%
T: average tumor weight of the drug-administered group; C: average tumor weight of the blank control group.

[4] = HL-60, high dose (100 mg/kg in method) i.g. 30 days
[5] = HL-60, low dose (25 mg/kg in method) i.g. 30 days
[6] = HL-60, medium dose (50 mg/kg in method) i.g. 30 days

## COC1C(OC(C)=O)CC(=O)OC(C)CC=CC=CC(OC2CCC(N(C)C)C(C)O2)C(C)CC(CC=O)C1OC1OC(C)C(OC2CC(C)(O)C(OC(=O)CC(C)C)C(C)O2)C(N(C)C)C1O (stereo not shown) [Isovaleryl spiramycin II, isovaleryl spiramycin II]
[1]; [4]
  Relative Tumor Proliferation Rate (T/C): 41.36%
  tumor growth inhibition rate: 51.81%
[1]; [5]
  Relative Tumor Proliferation Rate (T/C): 75.39%
  tumor growth inhibition rate: 15.92%
[1]; HL-60, low, medium and high doses, P<0.05
  tumor volume and relative tumor volume compared with the model group: significantly lower
[1]; [6]
  Relative Tumor Proliferation Rate (T/C): 65.18%
  tumor growth inhibition rate: 29.48%
[1]; dose 25 mg/kg
  Inhibition Rate (%): 15.92%
  Relative Tumor Proliferation Rate (T/C): 75.39%
  Relative Tumor Volume (RTV): 8.48 ± 1.37
  Tumor Weight: 1.90 ± 0.33 g
  Tumor Volume (mm3) (d 1): 189.51 ± 28.58 mm3
  Tumor Volume (mm3) (d30): 1596.76 ± 293.76 mm3
[1]; dose 50 mg/kg
  Inhibition Rate (%): 29.48%
  Relative Tumor Proliferation Rate (T/C): 65.18%
  Relative Tumor Volume (RTV): 7.33 ± 2.36
  Tumor Weight: 1.60 ± 0.45 g
  Tumor Volume (mm3) (d 1): 184.06 ± 32.38 mm3
  Tumor Volume (mm3) (d30): 1344.04 ± 466.62 mm3
[1]; dose 100 mg/kg
  Inhibition Rate (%): 51.81%
  Relative Tumor Proliferation Rate (T/C): 41.36%
  Relative Tumor Volume (RTV): 4.65 ± 1.77
  Tumor Weight: 1.09 ± 0.34 g
  Tumor Volume (mm3) (d 1): 184.80 ± 33.56 mm3
  Tumor Volume (mm3) (d30): 834.34 ± 308.27 mm3
[1]; mouse, in vivo
  mouse weight compared with the model group: no significant changes
[1]; mouse, in vivo, 25 mg/kg
  Body Weight (g) (d1): 20.78 ± 1.31 g
  Body Weight (g) (d30): 20.59 ± 1.54 g
[1]; mouse, in vivo, 50 mg/kg
  Body Weight (g) (d1): 21.01 ± 1.20 g
  Body Weight (g) (d30): 20.72 ± 1.29 g
[1]; mouse, in vivo, 100 mg/kg
  Body Weight (g) (d1): 20.65 ± 1.27 g
  Body Weight (g) (d30): 20.32 ± 1.55 g
[2]
  IC50: 20.61 ± 0.48 µg/mL (≈ 21.3 µM)
[3]; 13, 26 and 52 mg/kg i.g. 15 days
  growth of Lewis lung cancer in mice: significantly inhibit
[3]; dose 12.5 mg/kg
  Tumor Volume (mm3) (d 1): 104.18 ± 19.49 mm3
  Tumor Volume (mm3) (d30): 1304.48 ± 379.51 mm3
  Relative Tumor Proliferation Rate (T/C): 80.51
  Relative Tumor Volume (RTV): 12.89 ± 4.69
[3]; dose 13 mg/kg
  Inhibition Rate (%): 38.67%
  Tumor Weight: 0.98 ± 0.37 g
[3]; dose 25 mg/kg
  Tumor Volume (mm3) (d 1): 103.63 ± 19.46 mm3
  Tumor Volume (mm3) (d30): 1119.26 ± 338.67 mm3
  Relative Tumor Proliferation Rate (T/C): 68.97
  Relative Tumor Volume (RTV): 11.04 ± 4.07
[3]; dose 26 mg/kg
  Inhibition Rate (%): 44.26%
  Tumor Weight: 0.89 ± 0.18 g
[3]; dose 50 mg/kg
  Tumor Volume (mm3) (d 1): 103.38 ± 18.03 mm3
  Tumor Volume (mm3) (d30): 798.42 ± 189.19 mm3
  Relative Tumor Proliferation Rate (T/C): 48.76
  Relative Tumor Volume (RTV): 7.81 ± 1.76
[3]; dose 52 mg/kg
  Inhibition Rate (%): 56.34%
  Tumor Weight: 0.70 ± 0.21 g
[3]; 13 mg/kg
  Body Weight (g) (d1): 20.33 ± 0.64 g
  Body Weight (g) (d 15): 22.17 ± 1.74 g
[3]; 26 mg/kg
  Body Weight (g) (d1): 19.62 ± 1.43 g
  Body Weight (g) (d 15): 22.38 ± 0.96 g
[3]; 52 mg/kg
  Body Weight (g) (d1): 20.05 ± 0.67 g
  Body Weight (g) (d 15): 22.75 ± 0.95 g
